Several values for one entry are separate records, joined by “and”; a condition that tells them apart may be missing. Equal entries are not always repeated.

The source of these data is patent US9662360B2, “Treatment of herpes, pseudomonas, staph, and hepatitis” (priority 2008, dated 2017).

For series [1] the following is noted: cited from earlier work.
The test system of series [2] is HSV-2. As to the kind of experiment: In vitro HSV-2 plaque inhibition on fibroblasts. The series is classed as cell-based. How it is done:
Laboratory testing was undertaken at the University Of Chicago, Clinical Microbiology Laboratories to determine inhibitory activity in vitro of the medical treatment and composition (medicine). The laboratory testing was conducted by the Associate Director, PhD, and Associate Professor of Pathology. […] It was stated by the pathologist, that they had tested “hundreds” of other compounds and had never seen anything as good as what this compound did. The following are the tests of the medicine that were conducted and results that were obtained at The University of Chicago. For ease of interpreting some of the scientific data and test results, the following definitions apply: • “MEM” pertains to Minimal Essential Medium. This is the culture medium used in laboratories for growing the cells upon which tests were run. • “Fibroblast” is a mesenchyme human cell (a cell found in connective tissue, blood, bone, lymphatics, and cartilage). • “IC50” pertains to the Inhibitory Concentrate. […] Three 24-compartment plates were inoculated with fibroblasts. […] There were four control compartments on each plate containing MEM without drug. 2. The growth media was removed from the compartments and 200 ul of HSV-1 was added to each compartment of the upper half of each plate. […] Also, 200 ul of HSV-2 was added to each compartment of the lower half of each plate. […] The virus titer was 6×10^5 per mL. 3. The plates were incubated at 37° C. for two hours. 4. The inoculum was removed and one mL of the MEM containing Drugs #1-3 were added to the four compartments. The concentration of the drug compared to the MEM is indicated below. […] Four plates were used to screen the four drug preparations. […] There were four control compartments on each plate containing MEM without drug. 2. The growth media was removed from the compartments and 200 ul of HSV-1 was added to each compartment of the upper two rows of each plate. […] Also, 200 ul of HSV-2 was added to each compartment of the lower half of each plate. […] The virus titer was 6×10^5 per mL. 3. The plates were incubated at 37° C. for four hours. 4. The inoculum was removed and one mL of the MEM containing drugs #1-4 was added to the four compartments.

The test system of series [3] is HSV-1. As to the kind of experiment: In vitro HSV-1 plaque inhibition on fibroblasts. Format: cell-based. How it is done:
Laboratory testing was undertaken at the University Of Chicago, Clinical Microbiology Laboratories to determine inhibitory activity in vitro of the medical treatment and composition (medicine). The laboratory testing was conducted by the Associate Director, PhD, and Associate Professor of Pathology. […] It was stated by the pathologist, that they had tested “hundreds” of other compounds and had never seen anything as good as what this compound did. The following are the tests of the medicine that were conducted and results that were obtained at The University of Chicago. For ease of interpreting some of the scientific data and test results, the following definitions apply: • “MEM” pertains to Minimal Essential Medium. This is the culture medium used in laboratories for growing the cells upon which tests were run. • “Fibroblast” is a mesenchyme human cell (a cell found in connective tissue, blood, bone, lymphatics, and cartilage). • “IC50” pertains to the Inhibitory Concentrate. […] 1. Three 24-compartment plates were inoculated with fibroblasts. […] There were four control compartments on each plate containing MEM without drug. 2. The growth media was removed from the compartments and 200 ul of HSV-1 was added to each compartment of the upper half of each plate. HSV-1 was diluted 1:5000 (2.0 ul of stock HSV-1 in 10 mL of MEM). […] Also, 200 ul of HSV-2 was added to each compartment of the lower half of each plate. HSV-2 was diluted 1:2,000 (5.0 ul of stock HSV-2 in 10 mL of MEM). The virus titer was 6×10^5 per mL. 3. The plates were incubated at 37° C. for two hours. 4. The inoculum was removed and one mL of the MEM containing Drugs #1-3 were added to the four compartments. The concentration of the drug compared to the MEM is indicated below. 1. Three plates were used to screen the three drug preparations. […] There were four control compartments on each plate containing MEM without drug. 2. The growth media was removed from the compartments and 200 ul of HSV-1 was added to each compartment of the upper half of each plate. HSV-1 was diluted 1:5000 (2.0 ul of stock HSV-1 in 10 mL of MEM). […] 3. The plates were incubated at 37° C. for four hours. 4. The inoculum was removed and one mL of the MEM containing drugs #1A-3A were added to the four compartments. 1. Four plates were used to screen the four drug preparations. […] There were four control compartments on each plate containing MEM without drug. 2. The growth media was removed from the compartments and 200 ul of HSV-1 was added to each compartment of the upper two rows of each plate. HSV-1 was diluted 1:5000 (2.0 ul of stock HSV-1 in 10 mL of MEM). […] Also, 200 ul of HSV-2 was added to each compartment of the lower half of each plate. HSV-2 was diluted 1:2,000 (5.0 ul of stock HSV-2 in 10 mL of MEM). The virus titer was 6×10^5 per mL. 3. The plates were incubated at 37° C. for four hours. 4. The inoculum was removed and one mL of the MEM containing drugs #1-4 was added to the four compartments.

Series [4] relates to transmission of virus from chronically infected H9 cells to ME180 cervical epithelial cells. Kind of series: Topical microbicide assay (p24 ELISA). The series is classed as cell-based, HIV. Conditions: qualitative. How it is done:
MEI 180 cervical epithelial cells were plated in the interior walls of a 96-well flat bottom microtiter plate at a density of […] cells per well and incubated overnight. Chronically infected H9 cells wee treated with 200 μg/ml mitomycin C in complete medium for one hour, washed extensively and resuspended at 4×10^5 per ml. […] Antiviral compounds and chronically infected cells (2×10^4) were added to each well containing ME180 cells and incubated for 6 hours. Following co-cultivation the monolayer was washed extensively and fresh medium added. Medium was removed and fresh medium added at 24 and 48 hours post-infection to remove dead lymphocytes. On day 6 post-infection, supernatant samples were removed and analyzed for virus content by p24 ELISA.
Background: In an ELISA, binding on a coated surface is turned into a signal by an enzyme label.

`OCc1ccccc1` [Benzyl alcohol]: in series [1], the solubility in water is reported as 4 g/100 mL.

In the case of Benzalkonium chloride [Drug #1B], the plaques result was “toxic” in series [2] (HSV-2, 1:20); “toxic” in series [2] (HSV-2, 1:40); “toxic” in series [2] (HSV-2, 1:80); “toxic” in series [2] (HSV-2, 1:160); 21 and 17 in series [2] (HSV-2, 1:320); “toxic” in series [3] (HSV-1, 1:20). In addition, the plaques result in series [3] (HSV-1, 1:40) is “toxic”; in series [3] (HSV-1, 1:80), “toxic”; in series [3] (HSV-1, 1:160) it was “toxic”; in series [3] (HSV-1, 1:320), 15?* and 18?*. Also, the Average plaques in series [2] (HSV-2, 1:320) is on record as 19.

On to dextran, for which the “activity in topical microbicide assay” value in series [4] is reported as “expected level of activity”.

Consider Dextran sulfate, for which, in series [4], the “activity in topical microbicide assay” value is “expected level of activity”.

On to Benzalkonium chloride [Drug #1A], for which the plaques entry in series [3] (HSV-1, 1:2) is “toxic”; in series [3] (HSV-1, 1:4), “toxic”; in series [3] (HSV-1, 1:8) it was “toxic”; in series [3] (HSV-1, 1:16) it was “toxic”; in series [3] (HSV-1, 1:32), “toxic”.
